Results: ChEMBL document CHEMBL4706519, “Evaluation of N-phenyl-2-aminothiazoles for treatment of multi-drug resistant and intracellular Staphylococcus aureus infections” (Eur J Med Chem, 2020)

Experiments:
Enterococcus faecium [1] = assay: Ratio of MBC to MIC for vancomycin-resistant Enterococcus faecium ATCC 700221 assessed as inhibition of bacterial growth measured after 18 to 20 hrs by CLSI protocol based broth microdilution method; assay type: functional; conditions: time 18-20 hrs
Escherichia coli [2] = assay: Antibacterial activity against wild type Escherichia coli BW25113 assessed as inhibition of bacterial growth measured after 18 to 20 hrs by broth microdilution method; assay type: functional; conditions: time 18-20 hrs
Staphylococcus aureus [3] = assay: Antibacterial activity against methicillin-resistant Staphylococcus aureus USA400 NRS123 infected in mouse J774 cells assessed as reduction in intracellular bacterial burden at 2 x MIC measured after 24 hrs relative to control; assay type: functional
Staphylococcus aureus [4] = assay: Bactericidal activity against methicillin-resistant Staphylococcus aureus USA400 NRS123 assessed as log reduction in viable bacteria count at 5 times MIC incubated for 2 hrs in soy broth followed by incubation for 18 to 20 hrs on agar plate by time kill assay; assay type: functional; conditions: time 20-22 hrs
[5] = Cytotoxicity against mouse J774 cells assessed as cell viability at 32 ug/ml incubated for 2 hrs by MTS assay; assay type: cell-based; conditions: J774 cells, at 32 µg/mL, read-out: Activity
Listeria monocytogenes [6] = assay: Ratio of MBC to MIC for Listeria monocytogenes ATCC 19111 assessed as inhibition of bacterial growth measured after 18 to 20 hrs by CLSI protocol based broth microdilution method; assay type: functional; conditions: time 18-20 hrs
[7] = Cytotoxicity against human Caco-2 cells assessed as cell viability at 32 ug/ml incubated for 2 hrs by MTS assay relative to control; assay type: cell-based; conditions: at 32 µg/mL, read-out: Activity
Listeria monocytogenes [8] = assay: Antibacterial activity against Listeria monocytogenes ATCC 19111 assessed as inhibition of bacterial growth measured after 18 to 20 hrs by CLSI protocol based broth microdilution method; assay type: functional; conditions: time 18-20 hrs
[9] = test system: Staphylococcus epidermidis; assay: Antibacterial activity against methicillin-resistant Staphylococcus epidermidis NRS101 assessed as inhibition of bacterial growth measured after 18 to 20 hrs by CLSI protocol based broth microdilution method; assay type: functional; conditions: time 18-20 hrs
Staphylococcus aureus [10] = assay: Ratio of MIC for methicillin-resistant Staphylococcus aureus USA400 NRS123 measured after 11th passage to MIC for methicillin-resistant Staphylococcus aureus USA400 NRS123 measured after 18 to 20 hrs by broth microdilution assay; assay type: functional
[11] = test system: Staphylococcus epidermidis; assay: Ratio of MBC to MIC for methicillin-resistant Staphylococcus epidermidis NRS101 assessed as inhibition of bacterial growth measured after 18 to 20 hrs by CLSI protocol based broth microdilution method; assay type: functional; conditions: time 18-20 hrs
[12] = Selectivity index, ratio of maximum non-toxic concentration for human Caco-2 cells to MIC for methicillin-resistant Staphylococcus aureus USA500 NRS385; assay type: toxicity
Staphylococcus aureus [13] = assay: Ratio of MBC to MIC against methicillin-sensitive Staphylococcus aureus ATCC 6538 assessed as inhibition of bacterial growth measured after 18 to 20 hrs by CLSI broth microdilution method; assay type: functional; conditions: time 18-20 hrs
Escherichia coli [14] = assay: Antibacterial activity against Escherichia coli JW55031 harboring toIC efflux mutant assessed as inhibition of bacterial growth measured after 18 to 20 hrs by broth microdilution method; assay type: functional; conditions: time 18-20 hrs
[15] = Selectivity index, ratio of maximum non-toxic concentration for human Caco-2 cells to MIC for methicillin-resistant Staphylococcus aureus USA700 NRS386; assay type: toxicity
Streptococcus pneumoniae [16] = assay: Antibacterial activity against cephalosporin-resistant Streptococcus pneumoniae ATCC 51916 assessed as inhibition of bacterial growth measured after 18 to 20 hrs by CLSI protocol based broth microdilution method; assay type: functional; conditions: time 18-20 hrs
Staphylococcus aureus [17] = assay: microbe, parasite or virus in culture; conditions: USA700 NRS386
Staphylococcus aureus [18] = assay: Antibacterial activity against vancomycin-resistant Staphylococcus aureus 12 assessed as inhibition of bacterial growth measured after 18 to 20 hrs by CLSI protocol based broth microdilution method; assay type: functional; conditions: time 18-20 hrs
Staphylococcus aureus [19] = assay: Ratio of MBC to MIC against methicillin-sensitive Staphylococcus aureus NRS107 assessed as inhibition of bacterial growth measured after 18 to 20 hrs by CLSI protocol based broth microdilution method; assay type: functional; conditions: time 18-20 hrs
Staphylococcus aureus [20] = assay: microbe, parasite or virus in culture; conditions: ATCC 6538
Enterococcus faecalis [21] = assay: microbe, parasite or virus in culture; conditions: ATCC 51299
Staphylococcus aureus [22] = assay: microbe, parasite or virus in culture; conditions: USA400 NRS123
Staphylococcus aureus [23] = assay: Bactericidal activity against methicillin-resistant Staphylococcus aureus USA400 NRS123 assessed as post-antibiotic effect at 5 times MIC incubated for 2 hrs followed by compound wash-out by viable plate count method; assay type: functional
[24] = Selectivity index, ratio of maximum non-toxic concentration for human Caco-2 cells to MIC for methicillin-resistant Staphylococcus aureus USA300 NRS384; assay type: toxicity
Streptococcus pneumoniae [25] = assay: Antibacterial activity against methicillin-resistant Streptococcus pneumoniae ATCC 700677 assessed as inhibition of bacterial growth measured after 18 to 20 hrs by CLSI protocol based broth microdilution method; assay type: functional; conditions: time 18-20 hrs
Staphylococcus aureus [26] = assay: microbe, parasite or virus in culture; conditions: USA500 NRS385
Streptococcus pneumoniae [27] = assay: Ratio of MBC to MIC for methicillin-resistant Streptococcus pneumoniae ATCC 700677 assessed as inhibition of bacterial growth measured after 18 to 20 hrs by CLSI protocol based broth microdilution method; assay type: functional; conditions: time 18-20 hrs
Enterococcus faecalis [28] = assay: Ratio of MBC to MIC for vancomycin-resistant Enterococcus faecalis ATCC 51299 assessed as inhibition of bacterial growth measured after 18 to 20 hrs by CLSI protocol based broth microdilution method; assay type: functional; conditions: time 18-20 hrs
Staphylococcus aureus [29] = assay: Antibacterial activity against methicillin-resistant Staphylococcus aureus USA400 NRS123 infected in mouse J774 cells assessed as reduction in intracellular bacterial burden at 4 x MIC measured after 24 hrs relative to control; assay type: functional
[30] = Cytotoxicity against mouse J774 cells assessed as cell viability at 16 ug/ml incubated for 2 hrs by MTS assay relative to control; assay type: cell-based; conditions: at 16 µg/mL, read-out: Activity
[31] = Selectivity index, ratio of maximum non-toxic concentration for human Caco-2 cells to MIC for methicillin-resistant Staphylococcus aureus USA400 NRS123; assay type: toxicity
Staphylococcus aureus [32] = assay: Antibacterial activity against methicillin-resistant Staphylococcus aureus USA300 NRS384 assessed as inhibition of bacterial growth measured after 18 to 20 hrs by broth microdilution method; assay type: functional; conditions: time 18-20 hrs
[33] = Selectivity index, ratio of maximum non-toxic concentration for human Caco-2 cells to MIC for methicillin-resistant Staphylococcus aureus NRS119; assay type: toxicity
Staphylococcus aureus [34] = assay: microbe, parasite or virus in culture; conditions: NRS107
Staphylococcus aureus [35] = assay: Antibacterial activity against vancomycin-resistant Staphylococcus aureus 10 assessed as inhibition of bacterial growth measured after 18 to 20 hrs by CLSI protocol based broth microdilution method; assay type: functional; conditions: time 18-20 hrs
Streptococcus pneumoniae [36] = assay: Ratio of MBC to MIC for cephalosporin-resistant Streptococcus pneumoniae ATCC 51916 assessed as inhibition of bacterial growth measured after 18 to 20 hrs by CLSI protocol based broth microdilution method; assay type: functional; conditions: time 18-20 hrs
Staphylococcus aureus [37] = assay: microbe, parasite or virus in culture; conditions: NRS119
Staphylococcus aureus [38] = assay: Ratio of MIC for methicillin-resistant Staphylococcus aureus USA400 NRS123 measured after 5th passage to MIC for methicillin-resistant Staphylococcus aureus USA400 NRS123 measured after 18 to 20 hrs by broth microdilution assay; assay type: functional
Enterococcus faecium [39] = assay: Antibacterial activity against vancomycin-resistant Enterococcus faecium ATCC 700221 assessed as inhibition of bacterial growth measured after 18 to 20 hrs by CLSI protocol based broth microdilution method; assay type: functional; conditions: time 18-20 hrs
Staphylococcus aureus [40] = assay: Antibacterial activity against methicillin-resistant Staphylococcus aureus USA400 NRS123 infected in mouse J774 cells assessed as log reduction in intracellular bacterial burden at 4 x MIC measured after 24 hrs; assay type: functional
Staphylococcus aureus [41] = assay: Bactericidal activity against methicillin-resistant Staphylococcus aureus USA400 NRS123 assessed as eradication of bacterial count at 5 times MIC incubated for 8 hrs in soy broth followed by incubation for 18 to 20 hrs on agar plate by time kill assay; assay type: functional; conditions: time 26-28 hrs
Staphylococcus aureus [42] = assay: Antibacterial activity against methicillin-resistant Staphylococcus aureus USA400 NRS123 infected in mouse J774 cells assessed as log reduction in intracellular bacterial burden at 2 x MIC measured after 24 hrs; assay type: functional

C/C(=N\NC(=N)N)c1ccc(Nc2nc(-c3ccccc3)cs2)cc1
8 µg/mL: MIC (Escherichia coli [2]) | MBC (Staphylococcus aureus [17]) | MBC (Streptococcus pneumoniae [25])
3: Ratio (Staphylococcus aureus [10])
16: selectivity ratio [12] | selectivity ratio [15] | selectivity ratio [24] | selectivity ratio [31] | selectivity ratio [33]
1.19 log10CFU/ml: Activity (Staphylococcus aureus [40])
100%: viability at 2 h, 32 ug/ml [5] | viability at 2 h, 32 ug/ml [7] | viability at 2 h, 16 ug/ml [30] | Activity (Staphylococcus aureus [41])
88%: inhibition (INH) (Staphylococcus aureus [3])
2 h: PAE (Staphylococcus aureus [23])
1: Ratio (Enterococcus faecium [1]) | Ratio (Listeria monocytogenes [6]) | Ratio [11] | Ratio (Staphylococcus aureus [13]) | Ratio (Staphylococcus aureus [19]) | Ratio (Streptococcus pneumoniae [27]) | Ratio (Enterococcus faecalis [28]) | Ratio (Streptococcus pneumoniae [36]) | Ratio (Staphylococcus aureus [38])
3 log10CFU/ml: Activity (Staphylococcus aureus [4])
4 µg/mL: MBC (Listeria monocytogenes [8]) | MIC (Escherichia coli [14]) | MBC (Streptococcus pneumoniae [16]) | MBC (Staphylococcus aureus [18]) | MBC (Enterococcus faecalis [21]) | MBC (Staphylococcus aureus [34]) | MBC (Staphylococcus aureus [37]) | MBC (Enterococcus faecium [39])
93%: inhibition (INH) (Staphylococcus aureus [29])
2 µg/mL: MIC (Streptococcus pneumoniae [16]) | MIC (Staphylococcus aureus [17]) | MIC (Staphylococcus aureus [18]) | MBC (Staphylococcus aureus [20]) | MIC (Staphylococcus aureus [20]) | MIC (Enterococcus faecalis [21]) | MBC (Staphylococcus aureus [22]) | MIC (Staphylococcus aureus [22]) | MIC (Streptococcus pneumoniae [25]) | MBC (Staphylococcus aureus [26]) | MIC (Staphylococcus aureus [26]) | MIC (Staphylococcus aureus [32]) | MBC (Staphylococcus aureus [35]) | MIC (Staphylococcus aureus [35]) | MIC (Staphylococcus aureus [37]) | MIC (Enterococcus faecium [39])
1 µg/mL: MIC (Listeria monocytogenes [8]) | MBC [9] | MIC [9] | MIC (Staphylococcus aureus [34])
1.07 log10CFU/ml: Activity (Staphylococcus aureus [42])
